Assay results published in patent US10934298B2, “Substituted pyrazolo[1,5-a]pyrimidines for the treatment of medical disorders” (BIAL—BioTech Investments, Inc., priority 2016, dated 2021).

Target: T1, glucocerebrosidase (Gcase) (Homo sapiens, UniProt P04062)
T1 construct: micellar solution containing 10 nM GCase and 100 nM saposin C
T1 sequence (P04062 40-536): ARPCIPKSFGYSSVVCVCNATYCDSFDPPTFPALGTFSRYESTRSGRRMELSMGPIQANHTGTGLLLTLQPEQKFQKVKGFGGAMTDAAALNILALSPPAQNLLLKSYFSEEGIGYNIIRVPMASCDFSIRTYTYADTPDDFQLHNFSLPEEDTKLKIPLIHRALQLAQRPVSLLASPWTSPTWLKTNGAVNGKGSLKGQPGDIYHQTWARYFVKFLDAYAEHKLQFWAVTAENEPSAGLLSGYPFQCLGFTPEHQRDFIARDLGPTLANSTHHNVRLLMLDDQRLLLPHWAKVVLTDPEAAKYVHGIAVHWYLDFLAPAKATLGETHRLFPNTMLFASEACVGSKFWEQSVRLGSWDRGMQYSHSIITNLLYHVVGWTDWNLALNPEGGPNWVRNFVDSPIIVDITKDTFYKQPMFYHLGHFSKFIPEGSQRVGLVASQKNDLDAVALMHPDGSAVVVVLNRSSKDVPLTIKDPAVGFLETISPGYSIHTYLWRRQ
Assay: Glucocerebrosidase (Gcase) activation assay with 4-methylumbelliferyl-beta-D-glucopyranoside substrate, saposin C and phosphatidylserine/triton micelles, fluorescence readout
Type: biochemical
Description: The ability of exemplary compounds to activate glucocerebrosidase (Gcase) was measured.
A 484 μL aliquot of a 1.0 mg/mL solution of phosphatidylserine (PS) (Sigma P7769) in chloroform was evaporated under a stream of nitrogen for 1 hour. The lipid film was dissolved over 4 minutes of vigorous vortexing in 40 mL of 176 mM K2HPO4/50 mM citric acid (pH 4.7) containing 7.5 μL of triton X-100, resulting in a mixed micellar preparation with a composition of 0.32 mM triton and 0.37 mol % PS. 4-Methylumbelliferyl-beta-D-glucopyranoside (ACROS-337025000) was dissolved in the micellar solution to a final concentration of 2 mM for use as the reaction substrate.
Test compounds were diluted to the desired concentrations with dimethylsulfoxide (DMSO) from 10 mM stocks, and 0.41 μL of the DMSO compound mixture was added to 100 μL of micellar solution containing 10 nM GCase and 100 nM saposin C (Enzo ALX-201-262-C050). Pre-incubation was allowed to occur for 30 minutes at room temperature, after which the reaction was initiated by combining 25 μL of substrate solution with 25 μL of compound/GCase/saposin mixture. The reaction proceeded for 15 minutes at room temperature and was stopped by adding 150 μL of 1M glycine, pH 12.5. The endpoint of the reaction was monitored by measuring fluorescence intensity (excitation: 365 nm; emission: 440 nm) on a SpectraMax i3 instrument (Molecular Devices). Test compounds were screened at 1.0 and 0.1 μM final concentration, and subsequent 8-point dose response curves were obtained using 3-fold dilutions from a maximum final concentration of 5 μM.

Percent Gcase Activation, 0.1 μM Test Compound (test compound at 0.1 μM)	Percent Gcase Activation, 1 μM Test Compound (test compound at 1.0 μM)	Structure (SMILES)	other results
		Cc1cc(-c2cccc(Cl)c2)nc2c(C(=O)N[C@@H](C)C3CC3)cnn12 [III-65]	Percent Gcase Activation, 0.1 μM Test Compound (0.1 μM test compound, Table 3A): *** (greater than 20% Gcase activation); Percent Gcase Activation, 1 μM Test Compound (1 μM test compound, Table 3A): +++ (Gcase activation greater than 60%)
* (less than 10% Gcase activation)	+ (less than 30% Gcase activation)	COc1ccncc1-c1cc(C)n2ncc(C(=O)NC(C)C(F)(F)F)c2n1 (centres unmarked) [III-269]	
		Cc1cc(N2CCOCC2)nc2c(C(=O)NC(C)C3CC3)cnn12 (centres unmarked) [III-58]	Percent Gcase Activation, 0.1 μM Test Compound (0.1 μM test compound, Table 3A): * (less than 10% Gcase activation); Percent Gcase Activation, 1 μM Test Compound (1 μM test compound, Table 3A): + (less than 30% Gcase activation)
		Cc1cc(-c2cccnc2)n2ncc(C(=O)N[C@@H](C)C3CC3)c2n1 [III-27]	Percent Gcase Activation, 0.1 μM Test Compound (0.1 μM test compound, Table 3A): * (less than 10% Gcase activation); Percent Gcase Activation, 1 μM Test Compound (1 μM test compound, Table 3A): + (less than 30% Gcase activation)
* (less than 10% Gcase activation)	+ (less than 30% Gcase activation)	Cc1ccncc1-c1cc(C)n2ncc(C(=O)NC(C)C(F)(F)F)c2n1 (centres unmarked) [III-281]	
*** (greater than 20% Gcase activation)	+++ (Gcase activation greater than 60%)	Cc1cc(-c2cc(F)cc(C#N)c2)nc2c(C(=O)N[C@@H](C)C3CC3)cnn12 [III-128]	
* (less than 10% Gcase activation)	+++ (Gcase activation greater than 60%)	COc1c(C#N)cccc1-c1cc(C)n2ncc(C(=O)NC(C3CC3)C(F)(F)F)c2n1 (centres unmarked) [III-141]	
* (less than 10% Gcase activation)	+++ (Gcase activation greater than 60%)	Cc1cc(C)n2ncc(C(=O)N[C@H]3CC[C@H](OCC(C)C)CC3)c2n1 [III-191]	
		Cc1cc(-c2cccc(Cl)c2)nc2c(C(=O)NC(C)C(F)(F)F)cnn12 (centres unmarked) [III-64]	Percent Gcase Activation, 0.1 μM Test Compound (0.1 μM test compound, Table 3A): *** (greater than 20% Gcase activation); Percent Gcase Activation, 1 μM Test Compound (1 μM test compound, Table 3A): +++ (Gcase activation greater than 60%)
*** (greater than 20% Gcase activation)	+++ (Gcase activation greater than 60%)	COc1ccc(-c2cc(C)n3ncc(C(=O)NC(C4CC4)C(F)(F)F)c3n2)cn1 (centres unmarked) [III-268]	
		Cc1ccc(-c2cc(C)n3ncc(C(=O)N[C@@H](C4CC4)C(F)(F)F)c3n2)c(F)n1 [III-373]	Percent Gcase Activation, 0.1 μM Test Compound (0.1 μM test compound): *** (greater than 20% Gcase activation); Percent Gcase Activation, 1 μM Test Compound (1 μM test compound): +++ (Gcase activation greater than 60%)
		Cc1ncc(F)cc1-c1cc(C)n2ncc(C(=O)N[C@H](C3CC3)C(F)(F)F)c2n1 [III-378]	Percent Gcase Activation, 0.1 μM Test Compound (0.1 μM test compound): ** (Gcase activation in the range of 10% up to 20%); Percent Gcase Activation, 1 μM Test Compound (1 μM test compound): +++ (Gcase activation greater than 60%)
		Cc1nc(-c2cc(C)n3ncc(C(=O)N[C@H](C4CC4)C(F)(F)F)c3n2)c(C)o1 [III-333]	Percent Gcase Activation, 0.1 μM Test Compound (0.1 μM test compound): *** (greater than 20% Gcase activation); Percent Gcase Activation, 1 μM Test Compound (1 μM test compound): +++ (Gcase activation greater than 60%)
		CCc1cc(-c2ccccn2)nc2c(C(=O)NC(C)(C)C(F)(F)F)cnn12 [III-407]	Percent Gcase Activation, 0.1 μM Test Compound (0.1 μM test compound): * (less than 10% Gcase activation); Percent Gcase Activation, 1 μM Test Compound (1 μM test compound): + (less than 30% Gcase activation)
		Cc1cc(C2CC(C)(C)CCO2)nc2c(C(=O)NC(C3CC3)C(F)(F)F)cnn12 (centres unmarked) [III-323]	Percent Gcase Activation, 0.1 μM Test Compound (0.1 μM test compound): ** (Gcase activation in the range of 10% up to 20%); Percent Gcase Activation, 1 μM Test Compound (1 μM test compound): +++ (Gcase activation greater than 60%)
*** (greater than 20% Gcase activation)	+++ (Gcase activation greater than 60%)	Cc1cc(-c2ccco2)nc2c(C(=O)NC(C3CC3)C(F)(F)F)cnn12 (centres unmarked) [III-186]	
* (less than 10% Gcase activation)	+++ (Gcase activation greater than 60%)	Cc1ncc(-c2cc(C)n3ncc(C(=O)NC(C)(C)C4CC4)c3n2)o1 [III-252]	
		Cc1cc(N2CC(C(C)C)NC2=O)nc2c(C(=O)NC(C3CC3)C(F)(F)F)cnn12 (centres unmarked) [III-320]	Percent Gcase Activation, 0.1 μM Test Compound (0.1 μM test compound): *** (greater than 20% Gcase activation); Percent Gcase Activation, 1 μM Test Compound (1 μM test compound): +++ (Gcase activation greater than 60%)
		Cc1cc(-c2cccc(C#N)c2)nc2c(C(=O)N[C@@H](C)C3CC3)cnn12 [III-70]	Percent Gcase Activation, 0.1 μM Test Compound (0.1 μM test compound, Table 3A): *** (greater than 20% Gcase activation); Percent Gcase Activation, 1 μM Test Compound (1 μM test compound, Table 3A): +++ (Gcase activation greater than 60%)
*** (greater than 20% Gcase activation)	+++ (Gcase activation greater than 60%)	Cc1cc(-c2ccc(F)o2)nc2c(C(=O)NC(C3CC3)C(F)(F)F)cnn12 (centres unmarked) [III-264]	
		Cc1cc(N2CCCC(F)(F)C2)nc2c(C(=O)NC(C)C3CC3)cnn12 (centres unmarked) [III-61]	Percent Gcase Activation, 0.1 μM Test Compound (0.1 μM test compound, Table 3A): *** (greater than 20% Gcase activation); Percent Gcase Activation, 1 μM Test Compound (1 μM test compound, Table 3A): +++ (Gcase activation greater than 60%)
*** (greater than 20% Gcase activation)	+++ (Gcase activation greater than 60%)	Cc1cc(-c2ccc3ocnc3c2)nc2c(C(=O)NC(C)C(F)(F)F)cnn12 (centres unmarked) [III-169]	
*** (greater than 20% Gcase activation)	+++ (Gcase activation greater than 60%)	Cc1cc(-c2ccccc2C#N)nc2c(C(=O)N[C@@H](C)C(F)(F)F)cnn12 [III-213]	
		Cc1cc(-c2cccnc2)nc2c(C(=O)NC(C)C(F)(F)F)cnn12 (centres unmarked) [III-43]	Percent Gcase Activation, 0.1 μM Test Compound (0.1 μM test compound, Table 3A): * (less than 10% Gcase activation); Percent Gcase Activation, 1 μM Test Compound (1 μM test compound, Table 3A): ++ (Gcase activation in the range of 30% up to 60%)
*** (greater than 20% Gcase activation)	+++ (Gcase activation greater than 60%)	COc1cccc(-c2cc(C)n3ncc(C(=O)N[C@@H](C)C(F)(F)F)c3n2)c1 [III-91]	
		Cc1cc(C)n2ncc(C(=O)N[C@@H](C)C3CCCCC3)c2n1 [III-4]	Percent Gcase Activation, 0.1 μM Test Compound (0.1 μM test compound, Table 3A): *** (greater than 20% Gcase activation); Percent Gcase Activation, 1 μM Test Compound (1 μM test compound, Table 3A): +++ (Gcase activation greater than 60%)
		Cc1cc(N2CC(C(C)C)OC2=O)nc2c(C(=O)NC(c3ccccc3)C(F)(F)F)cnn12 (centres unmarked) [III-313]	Percent Gcase Activation, 0.1 μM Test Compound (0.1 μM test compound): *** (greater than 20% Gcase activation); Percent Gcase Activation, 1 μM Test Compound (1 μM test compound): +++ (Gcase activation greater than 60%)
*** (greater than 20% Gcase activation)	+++ (Gcase activation greater than 60%)	Cc1cc(-c2cccc3ncsc23)nc2c(C(=O)N[C@@H](C)C3CC3)cnn12 [III-222]	
		Cc1cc(-c2cccnc2C#N)nc2c(C(=O)NC(C)(C)C3CC3)cnn12 [III-371]	Percent Gcase Activation, 0.1 μM Test Compound (0.1 μM test compound): * (less than 10% Gcase activation); Percent Gcase Activation, 1 μM Test Compound (1 μM test compound): +++ (Gcase activation greater than 60%)

Structure (SMILES)	Percent Gcase Activation, 0.1 μM Test Compound (test compound at 0.1 μM)	Percent Gcase Activation, 1 μM Test Compound (test compound at 1.0 μM)	other results
Cc1cc(N2CCN(C(C)C)C2=O)nc2c(C(=O)NC(C)(C)C3CC3)cnn12 [III-230]	* (less than 10% Gcase activation)	++ (Gcase activation in the range of 30% up to 60%)	
Cc1cc(-c2ccon2)nc2c(C(=O)NC(C3CC3)C(F)(F)F)cnn12 (centres unmarked) [III-239]	** (Gcase activation in the range of 10% up to 20%)	+++ (Gcase activation greater than 60%)	
Cc1cc(N2CCN(C(C)C)C2=O)nc2c(C(=O)NC(C3CC3)C(F)(F)F)cnn12 (centres unmarked) [III-225]	** (Gcase activation in the range of 10% up to 20%)	+++ (Gcase activation greater than 60%)	
CCc1cc(N2CCN(C(C)C)C2=O)nc2c(C(=O)NC(C3CC3)C(F)(F)F)cnn12 (centres unmarked) [III-224]	** (Gcase activation in the range of 10% up to 20%)	+++ (Gcase activation greater than 60%)	
Cc1cc(-c2cccc(Cl)n2)nc2c(C(=O)N[C@H](C)C3CC3)cnn12 [III-132]	** (Gcase activation in the range of 10% up to 20%)	+++ (Gcase activation greater than 60%)	
